Source: article PMC11859726, “HDAC/σ1R Dual-Ligand as a Targeted Melanoma Therapeutic” (Pharmaceuticals, 2025)

Key:
UM 92-1 cells [1] = experiment: Cell proliferation, UM 92-1 cells; format: cell-based, human
Procedure: (§1) Cells were seeded in 96-well plates at a cell-specific density, following quantification of cell numbers on counting chambers after trypsinization and staining with trypan blue. After seeding (72 h), at a cell confluence of ~50%, the medium was removed, and treatments were started with fresh media. Treatments, carried out in quadruplicate, lasted for 48 h. Then, the cells were fixed with 4% paraformaldehyde in PBS for 20 min and, after washing, stained with either 1% crystal violet in water or an acridine orange solution (50 µg/mL) for an additional 20 min. At the end of the incubations, cells were washed (3 times) with 100 μL/well of bidistilled water. Finally, for crystal violet assays, 100 μL of 10% acetic acid was added to each well, and the absorbance (λ = 590 nm) was measured with a Synergy HTX Bioteck spectrophotometer (BioSPX, Beersel, Belgium). For acridine orange assays, cell staining was evaluated by measuring the fluorescence (excitation 485/20 nm, emission 528/20 nm) with the Synergy HTX Bioteck reader.

A375 cells = experiment: Cell proliferation, CM A375 cells; format: cell-based, human
Procedure: as §1

MCF7 cells = experiment: Tumor cell spreading assay, MCF7 cells; format: cell-based, human; details: 100 nM, 1 h
Procedure: (§2) Adherent 92-1 and MCF-7 cells were harvested using 0.05% Trypsin-EDTA and plated in 6-well plates. After 1 h incubations with the indicated treatments, the number of cells that formed, or not, distinct protrusions (lamellipodia, filopodia) were scored with an inverted microscope (20×, EVOS cell imaging system, Thermo Fisher, Waltham, MA, USA).

A549 cells = experiment: Cell proliferation, A549 cells; format: cell-based; details: Homo sapiens; A549 (Lung Carcinoma); 48 h; mean ± SD; read-out: Antiproliferative IC50
Procedure: as §1

σ2R = biological target: T1, σ2R (Cavia porcellus, UniProt H0V073); experiment: σ2R radioligand binding assay ([3H]-DTG); parameters: species or system guinea pig
T1 construct: using guinea pig brain membranes and appropriate radioligands; from tissue; host or cells: guinea pig brain membranes
T1 sequence (H0V073 1-176): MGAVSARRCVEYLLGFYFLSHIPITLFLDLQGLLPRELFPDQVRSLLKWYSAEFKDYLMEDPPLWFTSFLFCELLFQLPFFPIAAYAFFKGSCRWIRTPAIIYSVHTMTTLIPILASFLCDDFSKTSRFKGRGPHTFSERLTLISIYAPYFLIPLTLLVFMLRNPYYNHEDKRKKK
Procedure: (§4) Radioactivity was determined with a Beckman LS6500 scintillation counter. Inhibition constants (Ki values) were calculated with the EBDA/LIGAND program (Elsevier/Biosoft).

[2] = tested on: HDAC (total HDAC activity, HCT116 cell lysates); experiment: HDAC activity colorimetric assay in HCT116 cell lysates; format: biochemical, human
Procedure: (§3) HDAC activity was determined in the indicated cell lysates (50 µg proteins; 37 °C) using the non-selective HDAC Activity Colorimetric Assay kit (BioVision, Cambridge, UK), following the procedures described in previous studies. Samples were read at 405 nm with a microplate reader (Multiskan GO (Thermo Fisher Scientific, Waltham, MA, USA)), and the HDAC activity was expressed as the relative optical density (O.D.) values.

786-O cells = experiment: Cell proliferation, 786-O cells; format: cell-based; details: Homo sapiens, 786-0; 786-O (Renal Adenocarcinoma); 48 h; mean ± SD; read-out: Antiproliferative IC50
Procedure: as §1

WS1 cells = experiment: Cell proliferation, normal WS1 fibroblasts; format: cell-based; details: Homo sapiens; WS1 (Normal Skin Fibroblast); 48 h; mean ± SD; read-out: Antiproliferative IC50
Procedure: as §1

endothelial C166 cells = experiment: Tube formation assay, VEGF-A-stimulated endothelial cells; format: cell-based, mouse
Procedure: The tube formation assay using mouse endothelial […] cells was analyzed employing Matrigel (BD, Bedford, MA, USA), as previously described. Briefly, 96-well plates coated with Matrigel (50 μL/well) were filled with 100 μL medium/well and maintained overnight. Endothelial cells were seeded at 2.5 × 10^4 cells/well and incubated (for 3 h) with VEGF-A (80 ng/mL), in the presence of the indicated treatments. Then, capillary-like structures were imaged (×4 magnification) with a CCD camera connected with an inverted EVOS microscope. Finally, ImageJ software (NIH, Bethesda, MD, USA) was employed to quantify tube formations.

σ1R = biological target: T2, σ1R (Cavia porcellus, UniProt Q60492); experiment: σ1R radioligand binding assay ([3H]-(+)-pentazocine); parameters: species or system guinea pig
T2 construct: using guinea pig brain membranes and appropriate radioligands; from tissue; host or cells: guinea pig brain membranes
Procedure: as §4

T84 cells = experiment: Cell proliferation, T84 cells; format: cell-based, human
Procedure: as §1

[3] = tested on: HDAC enzymatic activities (MCF7, PC3, AGS cell lysates); experiment: HDAC activity colorimetric assay in other cancer cell lysates (MCF7, PC3, AGS); format: biochemical, human; details: other cancer cell types (MCF7, PC3, AGS lysates) vs control
Procedure: as §3

UM 92-1 cells [4] = experiment: Tumor cell spreading assay, 92-1 cells; format: cell-based, human; details: 1 h; for cells flat, with protrusions, Exp 1 (%) / cells flat, with protrusions, Exp 2 (%) / cells flat, with protrusions, Exp 3 (%) / rounded cells, Exp 1 (%) / rounded cells, Exp 2 (%) / rounded cells, Exp 3 (%): 92-1, % of total cell population
Procedure: as §2

MRC-5 cells = experiment: Cell proliferation, normal MRC-5 fibroblasts; format: cell-based; details: Homo sapiens, MRC5; MRC-5 (Normal Lung Fibroblast); 48 h; mean ± SD; read-out: Antiproliferative IC50
Procedure: as §1

[5] = MCF-7, % of total cell population

T2 sequence (Q60492 whole entry): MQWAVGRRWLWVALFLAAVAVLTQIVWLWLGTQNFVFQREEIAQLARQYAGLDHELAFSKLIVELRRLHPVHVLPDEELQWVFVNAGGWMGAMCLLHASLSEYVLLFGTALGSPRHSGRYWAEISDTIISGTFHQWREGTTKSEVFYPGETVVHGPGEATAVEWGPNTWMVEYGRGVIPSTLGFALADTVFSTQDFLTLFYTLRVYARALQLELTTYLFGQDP

Compound: c1ccc(CCN2CCCCC2)cc1 [AC927, reference compound]
- effect on proliferation (UM 92-1 cells [1]; UM 92-1 cells, 3c 30 and 100 nM, pentazocine 2 μM, AC927 2 μM, Figure 3a): did not alter
- effect on proliferation (A375 cells; CM A375 cells, 3c 90 and 200 nM, pentazocine 2 μM, AC927 2 μM, Figure 3b): did not alter

Compound: Cl.O=C(/C=C/c1ccc(CN2CCC(O)(c3ccc(Cl)cc3)CC2)cc1)NO [5c, (E)-4-(4-chlorophenyl)-4-hydroxy-1-{4-[3-(hydroxyamino)-3-oxoprop-1-en-1-yl]benzyl}piperidin-1-ium chloride]
- inhibition of cell spreading (MCF7 cells; MCF7 cells (low σ1R)): failed to suppress
- cells flat, with protrusions, Exp 1 (%) (MCF7 cells; [5]): 47,13%
- cells flat, with protrusions, Exp 2 (%) (MCF7 cells; [5]): 44,67%
- cells flat, with protrusions, Exp 3 (%) (MCF7 cells; [5]): 39,07%
- rounded cells, Exp 1 (%) (MCF7 cells; [5]): 52,87%
- rounded cells, Exp 2 (%) (MCF7 cells; [5]): 55,33%
- rounded cells, Exp 3 (%) (MCF7 cells; [5]): 60,93%
- IC50 (A549 cells): 118 ± 13 nM
- Ki (σ2R): 2050 ± 737 nM
- HDAC inhibition with respect to the vehicle control [2]: ~ 80%
- IC50 ([2]; 0–20 µM, read-out: IC50 on HDAC-dependent catalytic activity): 14.6 nM
- IC50 (786-O cells): 150 ± 24 nM
- IC50 (WS1 cells): 1160 ± 187 nM
- superior antiproliferative potency in UM cells compared to normal lung fibroblasts (UM 92-1 cells [1]; 92-1 vs MRC-5 IC50): ~ 5 fold
- IC50 (UM 92-1 cells [1]; Homo sapiens, 92.1 (Uveal Melanoma), 48 h, mean ± SD, read-out: Antiproliferative IC50): 24.8 ± 5.8 nM
- effect on VEGF-A-stimulated angiogenesis (endothelial C166 cells; 30 nM, 3 h, VEGF-A 80 ng/mL): without effects
- antiangiogenic effect in the presence of pentazocine (endothelial C166 cells; 5 µM plus σ1R agonist pentazocine 2 μM, combined score): completely prevented
- antiangiogenic effect in the presence of AC927 (endothelial C166 cells; 5 µM plus σ2R antagonist AC927 2 μM, combined score): to a significantly lesser extent than pentazocine
- effect on VEGF-A-stimulated angiogenesis (tube lengths, mesh areas, node numbers; words) (endothelial C166 cells; 5 µM, 3 h, VEGF-A 80 ng/mL): abrogated
- Ki (σ1R): 19 ± 1.6 nM
- fold higher affinity for σ1R than σ2R (σ1R; σ1R vs σ2R Ki): > 100 fold
- shift to the left in antiproliferative dose–response curves compared to normal skin fibroblasts (A375 cells; CM A375, lung A549 and renal 786-O vs WS1): 8–10 fold
- IC50 (A375 cells; Homo sapiens, A-375, A375 (Cutaneous Melanoma), 48 h, mean ± SD, read-out: Antiproliferative IC50): 91.5 ± 11.4 nM
- IC50 (T84 cells; Homo sapiens, T84 (Colorectal Carcinoma), 48 h, mean ± SD, read-out: Antiproliferative IC50): 1200 ± 381 nM
- sensitivity to antitumor actions (T84 cells; colon cancer T84 cells): resistant
- suppression of resident HDAC enzymatic activities [3]: significant suppression
- cells flat, with protrusions, Exp 1 (%) (UM 92-1 cells [4]; 100 nM): 37,23%
- cells flat, with protrusions, Exp 2 (%) (UM 92-1 cells [4]; 100 nM): 27,77%
- cells flat, with protrusions, Exp 3 (%) (UM 92-1 cells [4]; 100 nM): 37,27%
- rounded cells, Exp 1 (%) (UM 92-1 cells [4]; 100 nM): 62,77%
- rounded cells, Exp 2 (%) (UM 92-1 cells [4]; 100 nM): 72,23%
- rounded cells, Exp 3 (%) (UM 92-1 cells [4]; 100 nM): 62,73%
- cells flat, with protrusions, Exp 1 (%) (UM 92-1 cells [4]; 5 µM): 28,48%
- cells flat, with protrusions, Exp 2 (%) (UM 92-1 cells [4]; 5 µM): 17,22%
- cells flat, with protrusions, Exp 3 (%) (UM 92-1 cells [4]; 5 µM): 33,05%
- rounded cells, Exp 1 (%) (UM 92-1 cells [4]; 5 µM): 71,52%
- rounded cells, Exp 2 (%) (UM 92-1 cells [4]; 5 µM): 82,78%
- rounded cells, Exp 3 (%) (UM 92-1 cells [4]; 5 µM): 66,95%
- inhibition of cell spreading (UM 92-1 cells [4]; UM 92-1 cells, from 100 nM): significant inhibition
- IC50 (MRC-5 cells): 157 ± 55.2 nM
